Measurements taken from patent publication US9399637B2, “Substituted heteroaryl compounds and methods of use” (Calitor Sciences, LLC, priority 2014, dated 2016).

Legend:
[1] = Compound stability in rat liver microsomes; assay type: in vitro ADME; settings: pH 7.4; for half-life at 5 μM: rat liver microsomes 0.5 mg protein/mL, compound 5 μM, NADPH, 37° C., read-out: Rat T1/2; for CLint scaled at 5 μM: rat liver microsomes, in vivo CLint extrapolated
Method: Human or rat liver microsomes incubations were conducted in duplicate in polypropylene tubes. The typical incubation mixtures consisted of human or rat liver microsomes (0.5 mg protein/mL), compounds of interest (5 μM) and NADPH (1.0 mM) in a total volume of 200 μL potassium phosphate buffer (PBS, 100 mM, pH 7.4). Compounds were dissolved in DMSO and diluted with PBS such that the final concentration of DMSO was 0.05%. The enzymatic reactions were commenced with the addition of […] after a 3-min preincubation and incubated in a water bath open to the air at 37° C. Reactions were terminated at various time points (0, 5, 10, 15, 30, 60 min) by adding equal volume of ice-cold acetonitrile. The samples were stored at […] until LC/MS/MS assays.
The concentrations of compounds in the incubation mixtures of human or rat liver microsomes were determined by a LC/MS/MS method. The ranges of the linearity in the concentration range were determined for each tested compounds.
A parallel incubation was performed using denatured microsomes as the negative control, and reactions were terminated at various time points (0, 15, 60 min) after incubation at 37° C.
Dextromethorphan (70 μM) was selected as the positive control, and reactions were terminated at various time points (0, 5, 10, 15, 30, 60 min) after incubation at 37° C. Both positive and negative control samples were included in each assay to ensure the integrity of the microsomal incubation system.
The concentrations of compounds in human or rat liver microsome incubations were plotted as a percentage of the relevant zero time point control for each reaction. The in vivo CLint were extrapolated (ref.: Naritomi, Y.; Terashita, S.; Kimura, S.; Suzuki, A.; Kagayama, A.; and Sugiyama, Y.; Prediction of human hepatic clearance from in vivo animal experiments and in vitro metabolic studies with liver microsomes from animals and humans. Drug Metab. Dispos., 2001, 29: 1316-1324).

JAK2 (h) = target: T1, JAK2 (h) (Homo sapiens, UniProt O60674); experiment: JAK2 kinase assay; assay type: biochemical
T1 construct: purchased Millipore UK Ltd (assays run there as a service)
Method: (§1) Kinase assays can be performed by measurement of incorporation of γ-^33P ATP into immobilized myelin basic protein (MBP). High binding white 384 well plates (Greiner) are coated with MBP (Sigma #M-1891) by incubation of 60 μL/well of 20 μg/mL MBP in Tris-buffered saline (TBS; 50 mM Tris pH 8.0, 138 mM NaCl, 2.7 mM KCl) for 24 h at 4° C. Plates are washed 3× with 100 μL TBS. Kinase reactions are carried out in a total volume of 34 μL in kinase buffer (5 mM Hepes pH 7.6, 15 mM NaCl, 0.01% bovine gamma globulin (Sigma #I-5506), 10 mM MgCl2, 1 mM DTT, 0.02% TritonX-100). Compound dilutions are performed in DMSO and added to assay wells to a final DMSO concentration of 1%. Each data point is measured in duplicate, and at least two duplicate assays are performed for each individual compound determination. Enzyme is added to final concentrations of 10 nM or 20 nM, for example. A mixture of unlabeled ATP and γ-^33P ATP is added to start the reaction (2×10^6 cpm of γ-^33P ATP per well (3000 Ci/mmole) and 10 μM unlabeled ATP, typically. The reactions are carried out for 1 h at room temperature with shaking Plates are washed 7× with TBS, followed by the addition of 50 μL/well scintillation fluid (Wallac). Plates are read using a Wallac Trilux counter. This is only one format of such assays; various other formats are possible, as known to one skilled in the art.
The above assay procedure can be used to determine the IC50 for inhibition and/or the inhibition constant, Ki. The IC50 is defined as the concentration of compound required to reduce the enzyme activity by 50% under the condition of the assay. The IC50 value is estimated by preparing a 10 point curve using a ½ log dilution series (for example, a typical curve may be prepared using the following compound concentrations: 3 μM, 1 μM, 0.3 μM, 0.1 μM, 0.03 μM, 0.01 μM, 0.003 μM, 0.001 μM, 0.0003 μM and 0 μM).
(specific activity approx. 500 cpm/pmol, concentration as required).
The kinase assays described herein were performed at Millipore UK Ltd, Dundee Technology Park, Dundee DD2 1SW, UK.

FLT3 (h) = target: T2, FLT3 (h) (Homo sapiens, UniProt P36888); experiment: FLT3 kinase assay; assay type: biochemical
T2 construct: purchased Millipore UK Ltd (assays run there as a service)
T2 sequence (P36888 27-993): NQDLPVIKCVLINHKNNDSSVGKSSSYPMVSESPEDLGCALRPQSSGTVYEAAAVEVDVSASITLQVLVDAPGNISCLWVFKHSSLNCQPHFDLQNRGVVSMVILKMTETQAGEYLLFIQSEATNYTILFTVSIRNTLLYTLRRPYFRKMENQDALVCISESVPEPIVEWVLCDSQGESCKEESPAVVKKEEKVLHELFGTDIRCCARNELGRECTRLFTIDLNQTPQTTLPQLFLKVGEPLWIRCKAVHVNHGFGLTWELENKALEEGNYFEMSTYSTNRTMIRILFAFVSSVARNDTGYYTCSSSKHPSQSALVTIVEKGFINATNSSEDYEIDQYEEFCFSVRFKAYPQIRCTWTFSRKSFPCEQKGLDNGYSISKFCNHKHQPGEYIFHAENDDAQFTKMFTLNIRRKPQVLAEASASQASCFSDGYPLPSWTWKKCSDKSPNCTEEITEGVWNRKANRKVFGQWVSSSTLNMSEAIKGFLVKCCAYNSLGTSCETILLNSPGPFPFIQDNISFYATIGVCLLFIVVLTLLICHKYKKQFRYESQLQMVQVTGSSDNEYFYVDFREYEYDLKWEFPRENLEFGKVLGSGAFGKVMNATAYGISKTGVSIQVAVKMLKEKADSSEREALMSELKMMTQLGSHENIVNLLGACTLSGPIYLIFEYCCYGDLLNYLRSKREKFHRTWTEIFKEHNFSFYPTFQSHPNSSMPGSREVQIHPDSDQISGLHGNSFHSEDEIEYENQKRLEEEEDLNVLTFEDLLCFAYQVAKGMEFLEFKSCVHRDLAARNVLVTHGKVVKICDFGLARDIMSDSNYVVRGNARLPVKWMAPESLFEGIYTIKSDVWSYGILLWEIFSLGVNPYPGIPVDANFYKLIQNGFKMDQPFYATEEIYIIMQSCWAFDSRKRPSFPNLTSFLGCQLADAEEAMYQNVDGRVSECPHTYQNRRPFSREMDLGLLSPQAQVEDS
Method: as §1, with “art. […]” for “art.”

T1 sequence (O60674 whole entry): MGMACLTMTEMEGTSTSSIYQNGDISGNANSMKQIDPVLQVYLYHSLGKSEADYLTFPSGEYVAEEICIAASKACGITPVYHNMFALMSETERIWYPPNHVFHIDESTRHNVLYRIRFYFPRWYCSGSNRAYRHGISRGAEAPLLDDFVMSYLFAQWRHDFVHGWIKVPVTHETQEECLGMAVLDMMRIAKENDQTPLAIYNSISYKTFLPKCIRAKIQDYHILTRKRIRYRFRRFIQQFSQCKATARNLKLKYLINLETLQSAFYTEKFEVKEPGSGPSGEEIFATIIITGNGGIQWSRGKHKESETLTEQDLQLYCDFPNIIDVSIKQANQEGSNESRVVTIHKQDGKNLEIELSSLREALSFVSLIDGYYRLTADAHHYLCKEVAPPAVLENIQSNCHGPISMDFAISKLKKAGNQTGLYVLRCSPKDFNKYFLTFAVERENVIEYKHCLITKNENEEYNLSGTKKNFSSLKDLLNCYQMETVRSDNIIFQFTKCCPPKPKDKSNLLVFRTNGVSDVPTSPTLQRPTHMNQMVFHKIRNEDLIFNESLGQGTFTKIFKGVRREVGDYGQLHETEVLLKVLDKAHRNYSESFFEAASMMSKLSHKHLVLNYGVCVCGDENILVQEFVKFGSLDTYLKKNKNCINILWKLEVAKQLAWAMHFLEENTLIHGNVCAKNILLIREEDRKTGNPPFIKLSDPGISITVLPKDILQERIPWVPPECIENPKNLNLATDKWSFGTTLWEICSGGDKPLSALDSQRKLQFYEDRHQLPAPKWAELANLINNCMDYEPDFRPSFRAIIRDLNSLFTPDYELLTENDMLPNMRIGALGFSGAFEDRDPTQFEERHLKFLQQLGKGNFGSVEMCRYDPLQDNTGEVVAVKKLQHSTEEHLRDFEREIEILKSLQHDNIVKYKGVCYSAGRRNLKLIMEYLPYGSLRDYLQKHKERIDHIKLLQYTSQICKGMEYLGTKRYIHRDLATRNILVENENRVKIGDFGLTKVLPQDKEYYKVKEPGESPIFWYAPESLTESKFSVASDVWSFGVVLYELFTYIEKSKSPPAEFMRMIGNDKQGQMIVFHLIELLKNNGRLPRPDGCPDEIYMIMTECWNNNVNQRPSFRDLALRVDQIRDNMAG

Compound	half-life at 5 μM [1]	CLint scaled at 5 μM [1]	IC50 (JAK2 (h))	IC50 (FLT3 (h))
Cc1c2ccc(Nc3ncc(Cl)c(NC4CC5CN(C(=O)CC#N)CC5C4)n3)cc2nn1C (centres unmarked) [Ex. 4, 3-(5-((5-chloro-2-((2,3-dimethyl-2H-indazol-6-yl)amino)pyrimidin-4-yl)amino)hexahydrocyclopenta[c]pyrrol-2(1H)-yl)-3-oxopropanenitrile]	25.3 min	98.3 mL/min/kg	9 nM	545 nM
CC(=O)N1CCC2(CCC(Nc3nc(Nc4ccc5c(C)n(C)nc5c4)ncc3Cl)CC2)CC1 [Ex. 7, 1-(9-((5-chloro-2-((2,3-dimethyl-2H-indazol-6-yl)amino)pyrimidin-4-yl)amino)-3-azaspiro[5.5]undecan-3-yl)ethanone]	29.3 min	84.8 mL/min/kg	2 nM	3 nM
